Read-outs that look alike come from different tables or passages of the source.
What was measured:
[1] = system: LL2 cells; experiment: qRTPCR of IFN related genes in Lewis lung carcinoma (LL2) cells in vitro (Example 4); format: cell-based, mouse; conditions: Doxorubicin 50 nM, 48 hours
Description: (§1) 4T1 cells (ATCC, CRL-2539) were cultured in RPMI-1640 (Sigma, Cat. #R8758) supplemented with 10% fetal bovine serum (FBS), L-glutamine (4 mM), streptomycin (5 μg/ml) and penicillin (5 U/ml). […] Lewis lung carcinoma cells LL/2 (LLC1) (ATCC, CRL-1642™) were cultured in Dulbecco's Modified Eagle's Medium ATCC® 30-2002™ (4 mM L-glutamine, 4500 mg/L glucose, 1 mM sodium pyruvate, and 1500 mg/L sodium bicarbonate).
RNA was extracted from snap frozen tumors using the RNEasy Microarray Tissue Mini kit from Qiagen following the manufacturer's instructions. As tumors contained Doxorubicin and powderizing them could expose personnel to harmful substances, the RNA was extracted in a closed system using the GentleMACS dissociator and M Tubes. Purity and concentration of RNA was measured using Nanodrop. RT^2 Profiler™ PCR Array. cDNA was synthesized from RNA using the RT^2 First Strand kit (Qiagen) according to the manufacturer's instructions. cDNA was mixed with RT^2 SYBR Green Mastermix (Qiagen) and loaded into RT^2 Profiler™ PCR Array Mouse Type I Interferon Response or RT^2 Profiler™ PCR Array Mouse Epithelial to Mesenchymal Transition (EMT), analyzing the expression of the genes listed in Table 17. The plates were analyzed using Light Cycler 480 (Roche) and data were analyzed using the Qiagen Data Analysis Centre and Graph Pad (Prism).
Chemotherapeutic agents commonly used to treat lung cancer patients were evaluated for effects on the IFN response. Cisplatin, navelbine and docetaxel were tested in vitro in combination with bemcentinib.
(§2) The IC50 of the different drugs were calculated by resazurin viability assay. […] The cells were treated for 48 hours.

[2] = system: LL2 cells; experiment: Resazurin viability assay of LL2 cells (Example 4); format: cell-based, mouse
Description: as §1, §2

[3] = system: 4T1 cells; experiment: qRTPCR of IFN related genes in 4T1 cells in vitro (Example 4); format: cell-based, mouse; conditions: doxorubicin, 42 ISG measured
[4] = system: 4T1 mammary carcinoma cells; experiment: Tumor growth, 4T1 model (Example 2); design: species or system Balb/c mice; conditions: short in vivo study, single i.t. injection day 15
Description: Tumor growth was measured with a digital handheld caliper twice weekly from emergence of tumor and until the day of euthanasia

[5] = mouse, in vivo
Excerpt: Animals were weighed prior to tumor cell injection, prior to daily dosing and prior to euthanasia.

[6] = system: 4T1 cells; experiment: RNA sequencing of 4T1 cells in vitro (Example 4); format: cell-based, mouse; conditions: without supplemental Gas6
[7] = system: 43 mouse cytokines; experiment: Plasma cytokines, ProcartaPlex Multiplex Immunoassay (Luminex) (Example 2); format: in vivo, Balb/c mice; conditions: 1 mg/kg doxorubicin i.t., 72 h post injection, 43 measured
Description: The manufacturer user guide was followed. The samples were analyzed by (MAGPIX) and the results were obtained as concentration in pg/ml of mouse plasma. At least 3 samples per group, 4 for many, were analyzed.

For `COc1cccc2c1C(=O)c1c(O)c3c(c(O)c1C2=O)C[C@@](O)(C(=O)CO)C[C@@H]3O[C@H]1C[C@H](N)[C@H](O)[C@H](C)O1` [Doxorubicin, doxorubicin], the “ISG significantly upregulated compared to control (number)” value [1] was “limited IFN response”, the IC50 ([2]; Mus musculus, LL/2, read-out: IC50 without bem) was 178 nM and the IC50 ([2]; in the presence of bemcentinib, read-out: IC50 with bem) was 70.3 nM. The “ISG with significant mRNA fold change upregulation compared to control (number)” value [3] was 9, the Tumor growth [4] was “no effect” and the “Effect on the body weight of mice” value [5] was “limited effect”.

For `Nc1nc(Nc2ccc3c(c2)CC[C@@H](N2CCCC2)CC3)nn1-c1cc2c(nn1)-c1ccccc1CCC2` [Bemcentinib, bemcentinib], the “IFN related gene expression by RNA sequencing” value [6] was “limited IFN type I response” and the “Cytokines with a significant decrease of concentration (number)” value [7] was 4.
